Earlier results as cited in US8877445B2, “Methods for identification of tumor phenotype and treatment” (Intelligent Oncotherapeutics, Inc., priority 2008, dated 2014).
Where no end group is shown, it is not given here. [ ]: non-standard residue; d: D form.

Key:
patients [1] = tested on: patients
patients [2] = details: clinical phase I trial
melanoma cells = details: in vitro (Ghosh et al. 2005)
[3] = tested on: cultured human tumor cells
[4] = tested on: subcutaneous human tumor xenografts; details: for mitotic accumulation and apoptosis in xenografts / tolerability of efficacious doses: mouse, in vivo; for tolerability of efficacious doses: po; for tumor growth: oral administration (MLN8237: repeated) at well tolerated doses
Aurora A [5] = target: T1, Aurora A (Homo sapiens, UniProt O14965); details: in vitro
T1 sequence (O14965 whole entry): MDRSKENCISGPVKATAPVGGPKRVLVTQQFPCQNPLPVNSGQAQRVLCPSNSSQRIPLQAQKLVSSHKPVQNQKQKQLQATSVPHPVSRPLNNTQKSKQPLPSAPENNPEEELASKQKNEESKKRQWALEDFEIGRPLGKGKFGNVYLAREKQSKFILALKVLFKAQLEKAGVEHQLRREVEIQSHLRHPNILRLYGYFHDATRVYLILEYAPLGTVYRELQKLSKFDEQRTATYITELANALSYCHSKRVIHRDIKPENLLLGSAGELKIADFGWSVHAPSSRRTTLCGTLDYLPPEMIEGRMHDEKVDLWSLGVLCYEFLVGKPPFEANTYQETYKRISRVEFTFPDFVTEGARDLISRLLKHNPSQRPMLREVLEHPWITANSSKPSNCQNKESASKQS

Aurora A [6] = target: T1, Aurora A; details: cultured cells
[7] = in vivo
aurora B = aurora B (Homo sapiens, UniProt Q96GD4); details: at efficacious concentrations
aurora B, sequence (Q96GD4 whole entry): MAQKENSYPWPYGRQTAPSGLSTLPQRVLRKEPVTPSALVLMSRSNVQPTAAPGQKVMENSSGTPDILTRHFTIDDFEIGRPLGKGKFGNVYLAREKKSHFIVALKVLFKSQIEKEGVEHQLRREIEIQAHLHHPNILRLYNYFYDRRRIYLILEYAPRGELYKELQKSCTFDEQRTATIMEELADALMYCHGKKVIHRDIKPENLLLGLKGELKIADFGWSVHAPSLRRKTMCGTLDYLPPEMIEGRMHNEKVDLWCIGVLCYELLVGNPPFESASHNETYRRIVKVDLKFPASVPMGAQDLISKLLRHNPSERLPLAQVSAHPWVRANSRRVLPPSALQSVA

cells = details: reviewed in Agnese et al. 2007
human tumor types = details: in vivo, wide range of human tumor types (Pan et al. 2008)
[8] = tested on: leukemia, colon and pancreatic tumors
patients [9] = details: phase I; dose levels well below those which cause dose-limiting toxicity (ASCO 2008 abstract #3009)
FOXM1 = target: T2, FOXM1 (Homo sapiens, UniProt Q08050)
T2 sequence (Q08050 1-763): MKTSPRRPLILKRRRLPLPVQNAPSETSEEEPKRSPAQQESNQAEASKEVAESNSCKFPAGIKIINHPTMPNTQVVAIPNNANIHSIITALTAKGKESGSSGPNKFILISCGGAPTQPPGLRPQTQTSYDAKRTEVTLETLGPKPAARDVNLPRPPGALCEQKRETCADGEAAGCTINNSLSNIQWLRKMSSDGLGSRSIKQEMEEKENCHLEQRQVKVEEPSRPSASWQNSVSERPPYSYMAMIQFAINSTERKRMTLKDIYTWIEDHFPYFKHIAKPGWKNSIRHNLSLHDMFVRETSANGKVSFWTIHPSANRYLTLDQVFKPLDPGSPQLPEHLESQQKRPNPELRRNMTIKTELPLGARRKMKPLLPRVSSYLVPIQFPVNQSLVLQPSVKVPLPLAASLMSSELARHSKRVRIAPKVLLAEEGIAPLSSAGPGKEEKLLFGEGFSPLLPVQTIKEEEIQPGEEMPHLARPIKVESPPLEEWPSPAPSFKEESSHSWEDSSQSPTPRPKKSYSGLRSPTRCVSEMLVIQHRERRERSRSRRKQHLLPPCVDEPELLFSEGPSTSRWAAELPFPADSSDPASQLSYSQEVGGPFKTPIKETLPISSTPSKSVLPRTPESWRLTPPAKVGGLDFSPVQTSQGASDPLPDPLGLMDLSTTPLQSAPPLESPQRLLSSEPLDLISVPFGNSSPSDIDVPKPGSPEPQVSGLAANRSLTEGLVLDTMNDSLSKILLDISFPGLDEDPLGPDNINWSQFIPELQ

For `CCN(CCCOc1ccc2c(Nc3cc(CC(=O)Nc4cccc(F)c4)n[nH]3)ncnc2c1)CCOP(=O)(O)O` [AD1152], the toxicity (patients [1]; phase I) is listed as “neutropenia as the only significant toxicity” and the “patients with significant disease stabilization” value (patients [1]; phase I (ASCO 2008 abstract #3008)) is listed as 5 of 12.

In the case of `Cc1cc(Nc2ncc(F)c(NC3C4C=CC(C4)C3C(N)=O)n2)ccc1N1CCN(C)CC1` (stereo not shown) [AS703569], the toxicities (patients [2]) is given as “tolerable toxicities”.

For `C=CCc1ccc(O)c(OC)c1` [Eugenol], the “E2F1 targeting and killing of melanoma cells” value (melanoma cells) is listed as “target E2F1 and kill melanoma cells”.

In the case of `O=C(O)c1ccc(Nc2ncc3c(n2)-c2ccc(Cl)cc2C(c2c(F)cccc2F)=NC3)cc1` [MLN8054], the toxicities (patients [2]) is listed as “tolerable toxicities”, the “effects on cultured human tumor cells” value [3] is listed as “G2/M accumulation and spindle defects and inhibits proliferation” and the “duration of tumor growth inhibition” value ([4]; after end of treatment) is listed as “sustained after discontinuing MLN8054 treatment”. For the same molecule, the “mitotic accumulation and apoptosis in xenografts” value [4] was “induced mitotic accumulation and apoptosis”, the “tolerability of efficacious doses” value [4] was “well tolerated doses” and the tumor growth [4] was “dramatically inhibited”. For the same molecule, the “Aurora A kinase activity” value (Aurora A [5]) was “inhibits recombinant Aurora A kinase activity” and the “selectivity Aurora A over Aurora B” value (Aurora A [6]) was “selective for Aurora A over the family member Aurora B”.

In the case of `COc1cc(Nc2ncc3c(n2)-c2ccc(Cl)cc2C(c2c(F)cccc2OC)=NC3)ccc1C(=O)O` [MLN8237], the “effects on cultured human tumor cells” value [3] is listed as “mitotic spindle abnormalities, mitotic accumulation, inhibition of cell proliferation and apoptosis”, the pharmacokinetic profile [7] is listed as “favorable pharmacokinetic profile” and the oral bioavailability ([7]; po) is listed as “orally bioavailable”. For the same molecule, the “aurora B inhibition” value (aurora B) was “did not appreciably inhibit aurora B”, the “mitotic accumulation and apoptosis in xenografts” value [4] was “induced mitotic accumulation and apoptosis” and the “tolerability of efficacious doses” value [4] was “well tolerated doses”. For the same molecule, the tumor growth [4] was “dramatic tumor growth inhibition in all tumor models evaluated” and the “accumulation of mitotic cells” value ([4]; single oral administration) was “time dependent accumulation of mitotic cells”.

In the case of `CC(=O)NCC(=O)N1[C@@H]2CC[C@H]1c1ccc(Nc3ncc(C(F)(F)F)c(NC4CCC4)n3)cc12` [PF-03814735], the toxicities (patients [2]) is given as “tolerable toxicities”.

In the case of `CO[C@@H](C(=O)N1Cc2n[nH]c(NC(=O)c3ccc(N4CCN(C)CC4)cc3)c2C1)c1ccccc1` [PHA-739358], the toxicities (patients [2]) is given as “tolerable toxicities”.

For `O=C(Nc1cccc(Cl)c1)Nc1ncc(CCNc2ncnc3ccsc23)s1` [SNS-314], the toxicities (patients [2]) is given as “tolerable toxicities”.

For `Cc1cc(Nc2cc(N3CCN(C)CC3)nc(Sc3ccc(NC(=O)C4CC4)cc3)n2)[nH]n1` [VX-680], the “effect on cell proliferation, spindle formation, DNA copies, cell death” value (cells) is given as “block cell proliferation, disrupt bipolar spindle formation, and lead to accumulation of cells with 4N or greater numbers of chromosomal DNA copies and eventual cell death”, the “cell-cycle progression and apoptosis” value (human tumor types) is given as “blocks cell-cycle progression and induces apoptosis” and the “tolerability of efficacious doses” value ([8]; xenograft models) is given as “well-tolerated doses”. The tumor regression ([8]; xenograft models) was “regression of leukemia, colon and pancreatic tumors”, the tumor growth ([8]; xenograft models (Harrington et al. 2004)) was “substantial inhibition of tumor growth” and the “patients who achieved stable disease” value (patients [9]) was “three of 16”.

In the case of `COCC[n+]1c2c(n(Cc3cnccn3)c1C)C(=O)c1ccccc1C2=O.[Br-]` [YM155], the toxicity (solid tumors; phase I) is given as “tolerable toxicity” and the clinical activity (solid tumors; phase I (2008 abstracts #3536, 5135, 8538)) is given as “clinical activity in solid tumors”.

For `COc1cc2c(Nc3ccc(NC(=O)c4ccccc4)cc3)ncnc2cc1OCCCN1CCOCC1` [ZM 447439], the toxicities (patients [2]) is given as “tolerable toxicities”.

For “(D-Arg)9-p19ARF 26-44: small peptide that blocks FOXM1; rrrrrrrrrrKFVRSRRPRTAS-CALAFVN containing nine D-Arg residues at the amino terminus ([dR][dR][dR][dR][dR][dR][dR][dR][dR]KFVRSRRPRTASCALAFVN; not fully specified; printed as rrrrrrrrrrKFVRSRRPRTAS-CALAFVN; UniProt Q64364 26-44, looked up, fragment)”, the “action on FOXM1” value (FOXM1; Gusarova et al. 2007) is listed as “blocks FOXM1” and the “effects in vitro and in vivo” value (FOXM1; both in vitro and in vivo) is listed as “growth inhibition, reduction in levels of survivin, aurora B kinase, and PLK1 as well as inducing apoptosis”.
